Data: patent US8895588B2, “Pyrazole compound” (Takeda Pharmaceutical Company Limited, priority 2009, dated 2014)

Key:
[1] = target: T1, H^+/K^+-ATPase (Sus scrofa, UniProt P19156); assay: Proton potassium-adenosine triphosphatase (H+,K+-ATPase) inhibitory activity test; type: biochemical; conditions: swine gastric mucosa microsomal fraction, pH 6.5, 37° C.
T1 construct: The obtained microsomal fraction was used as proton, potassium-adenosine triphosphatase preparations; from tissue; host or cells: swine stomach, microsomal fraction of gastric mucosa
Method: Proton Potassium-Adenosine Triphosphatase (H^+,K^+-ATPase) Inhibitory Activity Test According to the method of Wallmark et al. [Biochim. Biophys. Acta, 728, 31 (1983)], a microsomal fraction of gastric mucosa was prepared from the stomach of swine. First, the stomach was removed, washed with tap water, and immersed in 3 mol/L sodium chloride, and the surface of the mucosa was wiped with a paper towel. The gastric mucosa was removed, minced, and homogenized in a 0.25 mol/L sucrose solution (pH 6.8) containing 1 mmol/L EDTA and 10 mmol/L tris-hydrochloric acid using polytron (Kinematica). The obtained homogenate was centrifuged at 20,000×g for 30 min and the supernatant was centrifuged at 100,000×g for 90 min. The precipitate was suspended in 0.25 mol/L sucrose solution, the suspension was superimposed on a 0.25 mol/L sucrose solution containing 7.5% Ficoll, and centrifuged at 100,000×g for 5 hr. The fraction containing the interface between the both layers was recovered, and centrifugally washed with 0.25 mol/L sucrose solution. The obtained microsomal fraction was used as proton, potassium-adenosine triphosphatase preparations. To 50 mmol/L HEPES-Tris buffer (5 mmol/L magnesium chloride, 10 mmol/L potassium chloride, 10 μmol/L valinomycin, pH=6.5, 40 μL) containing 2.5 μg/mL enzyme preparation based on the protein concentration was added a test compound (5 μL) dissolved in 10% dimethyl sulfoxide solution, and the mixture was incubated at 37° C. for 30 min. A 2 mmol/L adenosine triphosphate tris salt solution (50 mmol/L HEPES-tris buffer (5 mmol/L magnesium chloride, pH 6.5), 5 μL) was added to start an enzyme reaction. The enzyme reaction was performed at 37° C. for 20 min, and then a malachite green solution (a mixture of 0.12% malachite green sulfate (2.5 mol/L) solution, 7.5% ammonium molybdate and 11% Tween 20 at a ratio of 100:25:2, 15 μL) was added to stop the reaction. The reaction mixture was stood at room temperature for 15 min, and the resulting reaction product of inorganic phosphorus and malachite green was measured by colorimetric quantification at a wavelength of 610 nm. In addition, the amount of inorganic phosphoric acid in a reaction solution free of potassium chloride was also measured in the same manner, and the value was extracted from that in the presence of potassium chloride, whereby the proton, potassium-adenosine triphosphatase activity was measured. The inhibitory rate (%) was determined from the activity value of the control and that at each concentration of the test compound, and 50% inhibitory concentration (IC50) to proton, potassium-adenosine triphosphatase was determined.

[2] = tested on: anesthetized rat; assay: Histamine-stimulated acid secretion suppression test using anesthetized rat; type: in vivo; conditions: 1 mg/kg i.v., anesthetized SD rat, 3 hr after histamine
Method: Histamine-Stimulated Acid Secretion Suppression Test Using Anesthetized Rat 7-Week-old Jcl: male SD rats were fasted for about 24 hr and used for the experiment. Under urethane (1.2 g/kg, i.p.) anesthesia, the abdomen was incised along the middle-spinal line and the pyloric ring was ligated. Test compound (1 mg/kg) was intravenously administered, the abdominal incision was sutured, and histamine dihydrochloride (30 mg/kg/10 mL) dissolved in physiological saline was subcutaneously administered. After 3 hr from histamine administration, the rats were killed with carbon dioxide gas. The stomach was isolated and the accumulated gastric fluid was collected. The gastric fluid amount was measured and the acid level was measured using acid titration apparatus COM-555 (HIRANUMA SANGYO Co., Ltd.), and the product thereof was taken as the acid secretion level. The acid secretion suppressive rate of the test compound was determined from the comparison with control.

[3] = tested on: HepG2; assay: ATP content test; type: cell-based, human; conditions: HepG2, 100 μM, culture for one day, relative value to control (free of compound)
Method: (§1) ATP Content Test Human hepatocellular liver carcinoma cell line HepG2 (ATCC No. HB-8065) was maintained and subcultured at 5% CO2, 37° C. in a Dulbecco's modified Eagle medium (DMEM; Invitrogen) medium containing 10% fetal bovine serum (FBS; TRACE SCIENTIFIC LTD.), 1 mmol/L sodium pyruvate (Invitrogen), 2 mmol/L L-glutamine (Invitrogen), 50 IU/mL penicillin (Invitrogen), 50 μg/mL streptomycin (Invitrogen). Test reagent was prepared to 10 mM with DMSO, and diluted with DMEM medium containing 0.5% FBS, 1 mmol/L sodium pyruvate, 2 mmol/L L-glutamine, 50 IU/ml penicillin, 50 μg/mL streptomycin to the DMSO final concentration of 0.1%. HepG2 (2×10^4 cells/well) was cultured on a 96 well white plate (Costar) together with the test reagent at 5% CO2, 37° C. After culture for one day, the intracellular ATP content was measured with ATPLite™ (PerkinElmer Life Sciences). The results are shown in Table 1 as relative value (%) to the control (free of compound) at 100 μm (n≧3, mean±SD).

[4] = tested on: Caspase-3/7; assay: Caspase-3/7 activity test; type: cell-based, human; conditions: HepG2, 100 μM, culture for one day, relative to staurosporine maximum as 100%, no test reagent as 0%
Method: as §1, with “Human” for “ATP Content Test Human”, “mean±SD). Caspase-3/7 Activity Test The cells were cultured for one day according to a method similar to the method of Experimental Example 3, and the intracellular Caspase-3/7 activity was measured by Caspase-Glo 3/7 Assay (Promega). The results are shown in Table 1 as relative activity (%) of each test reagent when the maximum value of Caspase-3/7 activity on exposure to staurosporine as 100%, and activity without addition of test reagent as 0% (n≧3, mean±SD).” for “mean±SD).”

T1 sequence (P19156 whole entry): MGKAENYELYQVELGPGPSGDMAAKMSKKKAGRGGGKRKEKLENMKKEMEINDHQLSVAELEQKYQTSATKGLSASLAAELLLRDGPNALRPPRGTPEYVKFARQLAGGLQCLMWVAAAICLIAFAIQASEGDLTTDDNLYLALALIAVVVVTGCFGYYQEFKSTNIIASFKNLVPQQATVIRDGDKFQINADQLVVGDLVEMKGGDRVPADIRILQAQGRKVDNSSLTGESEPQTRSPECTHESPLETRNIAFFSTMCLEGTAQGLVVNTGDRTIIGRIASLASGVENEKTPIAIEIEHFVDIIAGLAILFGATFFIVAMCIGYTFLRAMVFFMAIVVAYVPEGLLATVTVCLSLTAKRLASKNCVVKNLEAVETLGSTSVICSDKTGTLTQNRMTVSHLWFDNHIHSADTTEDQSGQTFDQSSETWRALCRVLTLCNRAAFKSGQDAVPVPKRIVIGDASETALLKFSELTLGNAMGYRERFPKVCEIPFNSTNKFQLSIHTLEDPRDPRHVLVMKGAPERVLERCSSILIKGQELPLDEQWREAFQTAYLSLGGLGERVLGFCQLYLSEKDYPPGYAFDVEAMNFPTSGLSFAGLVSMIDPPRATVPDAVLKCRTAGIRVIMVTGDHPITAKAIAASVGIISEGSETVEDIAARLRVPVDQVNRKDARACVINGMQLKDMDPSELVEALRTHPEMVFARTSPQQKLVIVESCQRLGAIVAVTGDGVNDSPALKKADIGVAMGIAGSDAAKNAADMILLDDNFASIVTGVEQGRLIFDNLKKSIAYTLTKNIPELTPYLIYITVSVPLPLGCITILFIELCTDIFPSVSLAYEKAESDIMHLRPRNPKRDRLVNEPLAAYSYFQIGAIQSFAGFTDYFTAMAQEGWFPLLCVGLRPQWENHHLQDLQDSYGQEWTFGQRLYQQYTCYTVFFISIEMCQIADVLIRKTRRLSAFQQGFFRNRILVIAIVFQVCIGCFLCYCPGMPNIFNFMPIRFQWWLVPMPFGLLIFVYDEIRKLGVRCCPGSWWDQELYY
T1 sequence (P18434 whole entry partner): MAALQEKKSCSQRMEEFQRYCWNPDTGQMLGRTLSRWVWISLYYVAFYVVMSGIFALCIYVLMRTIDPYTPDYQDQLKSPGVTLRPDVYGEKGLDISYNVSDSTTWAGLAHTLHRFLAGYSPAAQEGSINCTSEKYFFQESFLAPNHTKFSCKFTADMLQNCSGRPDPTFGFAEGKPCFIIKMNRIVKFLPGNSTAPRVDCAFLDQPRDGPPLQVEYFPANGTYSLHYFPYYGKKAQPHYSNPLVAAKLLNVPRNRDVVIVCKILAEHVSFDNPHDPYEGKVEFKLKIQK

Row | IC50 [1] | ATP content (%, 100 μM) [3] | Caspase-3/7 activity (%, 100 μM) [4] | Structure (SMILES) | acid secretion inhibitory rate (%, 1 mg/kg, intravenous administration, rat) [2]
1 | 350 nM |  |  | CNCc1cc(S(=O)(=O)c2ccc(OC)cc2)n(-c2cccnc2F)n1.Cl [Example 2, 1-{1-(2-fluoropyridin-3-yl)-5-[(4-methoxyphenyl)sulfonyl]-1H-pyrazol-3-yl}-N-methylmethanamine hydrochloride] | 82%
2 | 120 nM | 95.9% | 0.1% | CNCc1cc(S(=O)(=O)c2ccc(F)cc2)n(-c2cccnc2F)n1.Cl [Example 1, 1-{5-[(4-fluorophenyl)sulfonyl]-1-(2-fluoropyridin-3-yl)-1H-pyrazol-3-yl}-N-methylmethanamine hydrochloride] | 98%
3 | 88 nM | 90.1% | −0.2% | CNCc1cc(S(=O)(=O)c2cccc(C)c2)n(-c2cccnc2F)n1.Cl [Example 3, 1-{1-(2-fluoropyridin-3-yl)-5-[(3-methylphenyl)sulfonyl]-1H-pyrazol-3-yl}-N-methylmethanamine hydrochloride] | 95%
4 | 230 nM | 98.5% | 1.0% | CNCc1cc(S(=O)(=O)c2cccc(C#N)c2)n(-c2cccnc2F)n1.Cl [Example 4, 3-({1-(2-fluoropyridin-3-yl)-3-[(methylamino)methyl]-1H-pyrazol-5-yl}sulfonyl)benzonitrile hydrochloride] | 99%
